Where “and” joins values, the source holds several entries; their conditions need not be identical. Equal values may be shown once. Blank lines part the entries; values can stand above or below the compound they belong to.
Legend:
[1] = Effect of pH on solubility in water (HPLC of supernatant); assay type: physicochemical
Experimental: To further purify N^6-((2-azidoethoxy)carbonyl)-L-lysine (Formula (VIa)), a suspension of N^6-((2-azidoethoxy)carbonyl)-L-lysine (Formula (VIa)) in water was prepared, followed by addition of HC1 to form a solution. Neutralization of the resulting solution with ammonium hydroxide reprecipitates the product and further purges the material of residual impurities, which remain in solution. In order to improve product yield, the effect of pH on the solubility of N^6-((2-azidoethoxy)carbonyl)-L-lysine (Formula (VIa)) was examined. Briefly, this study involved suspending N^6-((2-azidoethoxy)carbonyl)-L-lysine (Formula (VIa)) in water, progressively basifying the mixture, and determining the amount of N^6-((2-azidoethoxy)carbonyl)-L-lysine (Formula (VIa)) in the supernatant as a function of pH.
N^6-((2-azidoethoxy)carbonyl)-L-lysine (Formula (VIa)) (0.95 g) was charged into a 20 mL glass scintillation vial along with water (7.2 g). The resulting suspension was thoroughly mixed on a vortex apparatus for 60 seconds, then allowed to settle for 5 minutes. The pH of the supernatant was measured at 4.44 and an aliquot was taken and diluted with HPLC eluent (H2O:CH3CN 1:1, 0.1% TFA). The sample was analyzed by HPLC (column: ACE Excel 3 Super C18, 4.6×150 mm, 3.0 μm, flow rate: 1.2 mL/min, phase A: 0.1% TFA in water, phase B: 0.1% TFA in acetonitrile) and the content of N^6-((2-azidoethoxy)carbonyl)-L-lysine (Formula (VIa)) was calculated based on HPLC analysis of Formula (VIa) standards.
The contents of the scintillation vial were basified by addition of a drop of 28-30% ammonium hydroxide, and the suspension was vortexed, allowed to decant, and the supernatant was again sampled and analyzed by HPLC.

[2] = Accelerating rate calorimetry (ARC) study, heat-wait-search mode; conditions: for Onset temperature of exotherm / Onset of exothermic activity: HWS mode, adiabatic, air, titanium bomb; for ΔT adiabatic / Adiabatic Temperature Rise (phi corrected): phi factor 1.6684
[3] = Time to maximum rate (TMR) estimated from phi factor corrected ARC data; assay type: physicochemical
Text: Test data obtained from the ARC can be used to estimate the self-accelerating decomposition temperature of a sample (J. K. Wilberforce, “The Use of the Accelerating Rate calorimeter to determine the SADT of organic peroxides,” Columbia Scientific Industries, Milton Keynes; Harold G. Fisher and David D. Goetz, “Determination of self-accelerating decomposition temperature using the accelerating rate calorimeter,” J. Loss Prev. Process Ind., 1991, Vol 4., 305-316). Time to maximum rate (TMR) is defined as the amount of time that is needed for a reaction to reach its maximum self-heating rate or pressure rate in a thermal runaway reaction. TMR data was extracted from the phi factor corrected test data and a plot of Ln(TMR) against −1000/T was generated (FIG. 4).
The following equation was taken from FIG. 4 to allow the determination of the time to maximum rate as a function of temperature: Ln(TMR(s))=−16.389*(−1000/(T(K)))−29.262 The TMR increases as the batch temperature decreases. The measured exotherm was used to estimate the TMR. The results are provided only as a reference, as it is based on a single ARC test and not a detailed kinetic study (FIG. 5).

Amount of Formula (VIa) in supernatant ([1]; Supernatant 1, pH 4.44, 0.95 g suspended in 7.2 g water): 36 mg
Amount of Formula (VIa) in supernatant ([1]; Supernatant 2, pH 8.13, basified with ammonium hydroxide): 37 mg
Amount of Formula (VIa) in supernatant ([1]; Supernatant 3, pH 8.58): 38 mg
Amount of Formula (VIa) in supernatant ([1]; Supernatant 4, pH 8.73): 40 mg
Amount of Formula (VIa) in supernatant ([1]; Supernatant 5, pH 8.86): 42 mg
Amount of Formula (VIa) in supernatant ([1]; Supernatant 6, pH 9.00): 44 mg
Amount of Formula (VIa) in supernatant ([1]; Supernatant 7, pH 9.26): 44 mg
Structure (SMILES): [N-]=[N+]=NCCOC(=O)NCCCC[C@H](N)C(=O)O [Formula (VIa), N^6-((2-azidoethoxy)carbonyl)-L-lysine]
amount of product in supernatant of a saturated aqueous solution ([1]; pH range from 4 to 8): roughly the same amount of product in its supernatant

Maximum pressure of test [2]: 157.1 Bar gauge
Maximum pressure rate of test [2]: 2.756 Bar min^−1
Maximum self-heating rate of test [2]: 2.10 K min^−1
Temperature at maximum pressure rate [2]: 208.5 °C
Temperature at maximum self-heat rate [2]: 211.5 °C
Final temperature of exotherm / End of exothermic activity ([2]; 1st exotherm): 100.79 °C
ΔT ([2]; 1st exotherm): 0.65 °C
Onset temperature of exotherm / Onset of exothermic activity ([2]; 1st exotherm): 100.14 °C
ΔT adiabatic / Adiabatic Temperature Rise (phi corrected) ([2]; 1st exotherm): 1.08 °C
ΔH reaction ([2]; 1st exotherm, sample heat capacity estimated 2.10): −2.27 Joule/gram
Onset temperature of exotherm / Onset of exothermic activity ([2]; 2nd (major) exotherm): 160.5 °C and 160.48 °C
Final temperature of exotherm / End of exothermic activity ([2]; 2nd exotherm): 227.19 °C
ΔT ([2]; 2nd exotherm): 66.71 °C
ΔT adiabatic / Adiabatic Temperature Rise (phi corrected) ([2]; 2nd exotherm): 111.29 °C
ΔH reaction ([2]; 2nd exotherm, sample heat capacity estimated 2.10): −233.71 Joule/gram
Heat of reaction (exothermic) ([2]; Exotherm 1): -2.27 J/g
Heat of reaction (exothermic) ([2]; Exotherm 2): -233.71 J/g
ΔH reaction ([2]; Value column (both exotherms together)): −235.99 Joule/gram
non-condensable gas remained in the bomb after completion of the test ([2]; after cooling to near ambient temperature at 30.7° C.): 35.5 Bar gauge
Total heat released during the ARC test (all exotherms) ([2]; all exotherms): -235.98 J/g
maximum pressure rate ([2]; at 208.5° C.): 2.756 bar/min
maximum self-heat rate recorded ([2]; at 211.5° C.): 2.098 K/min
thermal hazard in preparing the compound ([2]; conclusion from ARC and TMR data): no significant thermal hazard
Maximum temperature of test ([2]; test stopped by pressure trip): 379.2 °C
total heat of the two exotherms ([2]; two exotherms): 236.0 J/g
Time to maximum rate (TMR) ([3]; 122.0 ° C.): 48.3 h
Time to maximum rate (TMR) ([3]; 129.0 ° C.): 23.5 h
Time to maximum rate (TMR) ([3]; 140.0 ° C.): 7.9 h
Time to maximum rate (TMR) ([3]; 160.0 ° C. (onset temperature of 2nd exotherm)): 1.3 h
Structure (SMILES): CC(C)(C)OC(=O)N[C@@H](CCCCNC(=O)OCCN=[N+]=[N-])C(=O)OC(C)(C)C [Formula (IIIa)]

— patent US12577197B2, “Methods of preparing N6-((2-azidoethoxy)carbonyl)lysine” (SANOFI, priority 2019, dated 2026)
